Results: US10787446B2 (GENENTECH, INC., priority 2015, dated 2020)

Biological target: T1, hNav1.7 and the β1 subunit (Homo sapiens, UniProt Q15858)
T1 construct: expressed in transfected cells
Assay: Tritiated compound competitive binding to membranes from cells heterologously expressing hNav1.7 and the β1 subunit (LBA)
Settings: competition with 100 pM [3H]compound, 18 h, room temperature; IC50 by 4 parameter logistic model
How it was run: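 Membranes were incubated 18 h at room temperature with 100 pM [3H]-labelled NaV1.7 inhibitor and increasing test compound in 100 mM NaCl, 20 mM Tris HCl, pH 7.4. Bound radioligand was filtered on PEI-soaked GF/C, washed, and counted by scintillation. IC50 from a 4-parameter logistic fit of % inhibition.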

T1 sequence (Q15858 whole entry): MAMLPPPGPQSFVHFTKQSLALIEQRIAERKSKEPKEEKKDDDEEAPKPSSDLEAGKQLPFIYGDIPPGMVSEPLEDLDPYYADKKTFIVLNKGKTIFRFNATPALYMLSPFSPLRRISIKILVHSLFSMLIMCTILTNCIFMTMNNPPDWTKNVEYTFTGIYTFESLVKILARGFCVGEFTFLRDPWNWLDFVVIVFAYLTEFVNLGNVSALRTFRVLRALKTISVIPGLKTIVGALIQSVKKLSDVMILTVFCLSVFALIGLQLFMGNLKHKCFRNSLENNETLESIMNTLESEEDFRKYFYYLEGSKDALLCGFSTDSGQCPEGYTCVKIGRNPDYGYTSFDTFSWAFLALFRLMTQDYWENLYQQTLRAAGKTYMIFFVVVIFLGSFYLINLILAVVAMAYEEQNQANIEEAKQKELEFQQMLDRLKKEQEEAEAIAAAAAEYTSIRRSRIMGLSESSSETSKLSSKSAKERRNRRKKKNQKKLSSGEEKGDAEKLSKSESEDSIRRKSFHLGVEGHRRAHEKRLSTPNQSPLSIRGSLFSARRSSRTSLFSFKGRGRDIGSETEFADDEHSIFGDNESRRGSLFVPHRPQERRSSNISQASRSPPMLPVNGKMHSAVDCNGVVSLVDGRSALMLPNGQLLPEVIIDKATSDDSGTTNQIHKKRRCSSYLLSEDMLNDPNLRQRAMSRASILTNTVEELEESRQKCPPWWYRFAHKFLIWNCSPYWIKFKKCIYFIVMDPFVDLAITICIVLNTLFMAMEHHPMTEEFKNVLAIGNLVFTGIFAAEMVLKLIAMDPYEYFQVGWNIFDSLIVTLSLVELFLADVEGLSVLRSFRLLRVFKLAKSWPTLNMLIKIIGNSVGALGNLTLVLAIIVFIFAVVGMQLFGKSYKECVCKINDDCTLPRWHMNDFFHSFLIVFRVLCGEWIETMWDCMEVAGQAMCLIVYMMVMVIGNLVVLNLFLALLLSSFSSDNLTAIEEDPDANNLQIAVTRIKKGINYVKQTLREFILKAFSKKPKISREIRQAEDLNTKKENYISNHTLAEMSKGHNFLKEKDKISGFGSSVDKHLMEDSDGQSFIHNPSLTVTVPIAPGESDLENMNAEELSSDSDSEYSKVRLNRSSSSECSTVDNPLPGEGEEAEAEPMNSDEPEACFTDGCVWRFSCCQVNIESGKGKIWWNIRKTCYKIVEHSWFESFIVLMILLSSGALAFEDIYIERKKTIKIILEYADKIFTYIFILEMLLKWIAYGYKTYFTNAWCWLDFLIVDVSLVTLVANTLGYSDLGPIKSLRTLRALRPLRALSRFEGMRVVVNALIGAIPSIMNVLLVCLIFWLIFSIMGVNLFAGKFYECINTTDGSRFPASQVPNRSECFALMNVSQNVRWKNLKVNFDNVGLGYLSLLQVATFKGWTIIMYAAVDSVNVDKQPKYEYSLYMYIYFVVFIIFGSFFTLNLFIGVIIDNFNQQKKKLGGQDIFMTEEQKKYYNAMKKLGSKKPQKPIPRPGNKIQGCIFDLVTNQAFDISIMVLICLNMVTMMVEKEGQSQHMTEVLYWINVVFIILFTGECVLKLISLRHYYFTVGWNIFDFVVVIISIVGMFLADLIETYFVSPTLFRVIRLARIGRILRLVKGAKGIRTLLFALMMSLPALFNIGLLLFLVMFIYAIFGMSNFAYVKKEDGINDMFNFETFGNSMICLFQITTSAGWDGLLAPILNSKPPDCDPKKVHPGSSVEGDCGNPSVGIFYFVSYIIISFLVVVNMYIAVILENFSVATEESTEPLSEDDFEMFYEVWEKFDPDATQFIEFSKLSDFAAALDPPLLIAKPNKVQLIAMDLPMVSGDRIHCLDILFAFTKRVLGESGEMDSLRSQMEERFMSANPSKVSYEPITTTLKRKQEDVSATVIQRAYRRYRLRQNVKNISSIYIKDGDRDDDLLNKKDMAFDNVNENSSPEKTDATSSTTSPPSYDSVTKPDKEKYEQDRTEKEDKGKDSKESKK
T1 sequence (Q07699 19-218 partner): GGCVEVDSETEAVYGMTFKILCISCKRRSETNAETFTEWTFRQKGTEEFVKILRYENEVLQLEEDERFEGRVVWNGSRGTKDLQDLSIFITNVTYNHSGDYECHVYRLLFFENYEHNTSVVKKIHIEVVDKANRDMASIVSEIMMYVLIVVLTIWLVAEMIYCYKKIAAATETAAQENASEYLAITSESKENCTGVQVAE

| Structure (SMILES) | Nav1.7 (LBA) |
| --- | --- |
| O=S(=O)(Nc1ncns1)c1ccc2c(c1)OCC[C@H]2N1CC[C@@H](C(F)(F)F)C[C@H]1c1ccccn1 [Example 191, (R)-4-((2S,4R)-2-(pyridin-2-yl)-4-(trifluoromethyl)piperidin-1-yl)-N-(1,2,4-thiadiazol-5-yl)chroman-7-sulfonamide] | 0.176 µM |
| Cn1cc([C@@H]2C[C@H](C(F)(F)F)CCN2[C@H]2CCOc3cc(S(=O)(=O)Nc4ncns4)ccc32)cn1 [Example 201, (S)-4-((2S,4R)-2-(1-methyl-1H-pyrazol-4-yl)-4-(trifluoromethyl)piperidin-1-yl)-N-(1,2,4-thiadiazol-5-yl)chroman-7-sulfonamide] | 0.0037 µM |
| Cc1cc([C@@H]2C[C@H](C(F)(F)F)CCN2[C@H]2CCOc3cc(S(=O)(=O)Nc4ncns4)ccc32)n(C)n1 [Example 203, (S)-4-((2S,4R)-2-(1,3-dimethyl-1H-pyrazol-5-yl)-4-(trifluoromethyl)piperidin-1-yl)-N-(1,2,4-thiadiazol-5-yl)chroman-7-sulfonamide] | 0.00824 µM |
| O=S(=O)(Nc1ncns1)c1ccc2c(c1)OCC[C@@H]2N1CC[C@@H](C(F)(F)F)C[C@H]1c1ccc(F)c(Cl)c1 [Example 204, (S)-4-((2S,4R)-2-(3-chloro-4-fluorophenyl)-4-(trifluoromethyl)piperidin-1-yl)-N-(1,2,4-thiadiazol-5-yl)chroman-7-sulfonamide] | 0.00398 µM |
| NC(=O)c1cccc([C@@H]2C[C@H](C(F)(F)F)CCN2[C@H]2CCOc3cc(S(=O)(=O)Nc4ncns4)ccc32)c1 [Example 205, 3-((2S,4R)-1-((S)-7-(N-(1,2,4-thiadiazol-5-yl)sulfamoyl)chroman-4-yl)-4-(trifluoromethyl)piperidin-2-yl)benzamide] | 0.000907 µM |

Now from value to compound:

| Nav1.7 (LBA) | Structure (SMILES) |
| --- | --- |
| 0.0103 µM | O=S(=O)(Nc1nccs1)c1cc2c(cc1F)[C@H](N1CC[C@@H](C(F)(F)F)C[C@H]1c1cccnc1)CCO2 [Example 193, (R)-6-fluoro-4-((2S,4R)-2-(pyridin-3-yl)-4-(trifluoromethyl)piperidin-1-yl)-N-(thiazol-2-yl)chroman-7-sulfonamide] |
| 0.0901 µM | O=S(=O)(Nc1nccs1)c1cc2c(cc1F)[C@H](N1CC[C@@H](C(F)(F)F)C[C@H]1c1ccncc1)CCO2 [Example 195, (R)-6-fluoro-4-((2S,4R)-2-(pyridin-4-yl)-4-(trifluoromethyl)piperidin-1-yl)-N-(thiazol-2-yl)chroman-7-sulfonamide] |
| 0.351 µM | O=S(=O)(Nc1nccs1)c1cc2c(cc1F)[C@H](N1CC[C@@H](C(F)(F)F)C[C@H]1c1ccc(F)c(F)c1)CCO2 [Example 197, (R)-4-((2S,4R)-2-(3,4-difluorophenyl)-4-(trifluoromethyl)piperidin-1-yl)-6-fluoro-N-(thiazol-2-yl)chroman-7-sulfonamide] |
| 0.000649 µM | O=S(=O)(Nc1nccs1)c1cc2c(cc1F)[C@@H](N1CC[C@@H](C(F)(F)F)C[C@H]1c1ccc(F)c(F)c1)CCO2 [Example 198, (S)-4-((2S,4R)-2-(3,4-difluorophenyl)-4-(trifluoromethyl)piperidin-1-yl)-6-fluoro-N-(thiazol-2-yl)chroman-7-sulfonamide] |
| 0.11 µM | O=S(=O)(Nc1nccs1)c1cc2c(cc1F)[C@H](N1CC[C@@H](C(F)(F)F)C[C@H]1c1cn[nH]c1)CCO2 [Example 199, (R)-4-((2S,4R)-2-(1H-pyrazol-4-yl)-4-(trifluoromethyl)piperidin-1-yl)-6-fluoro-N-(thiazol-2-yl)chroman-7-sulfonamide] |
| 0.000515 µM | Nc1cccc([C@@H]2C[C@H](C(F)(F)F)CCN2[C@H]2CCOc3cc(S(=O)(=O)Nc4nccs4)c(F)cc32)n1 [Example 206, (S)-4-((2S,4R)-2-(6-aminopyridin-2-yl)-4-(trifluoromethyl)piperidin-1-yl)-6-fluoro-N-(thiazol-2-yl)chroman-7-sulfonamide] |
